Numbers after ± are expanded uncertainties.
Test: activity coefficient (dimensionless); of the first substance listed, at infinite dilution; xn = mol fraction of the nth substance listed
Settings: 101 kPa, Liquid, Chromatography, x1 = 0

Row | SMILES | activity coefficient (308.15 K) | activity coefficient (318.15 K) | activity coefficient (328.15 K) | activity coefficient (338.15 K) | activity coefficient (348.15 K) | activity coefficient (358.15 K)
1 | Cc1ccccc1C [1,2-dimethylbenzene] + CCCCCC[N+]1(C)CCCCC1.O=S(=O)([N-]S(=O)(=O)C(F)(F)F)C(F)(F)F | 1.04 ± 0.07 | 1.08 ± 0.07 | 1.1 ± 0.07 | 1.13 ± 0.07 | 1.16 ± 0.07 | 1.18 ± 0.08
2 | Cc1ccccc1C [1,2-dimethylbenzene] + CCCCC[N+]1(C)CCCCC1.O=S(=O)([N-]S(=O)(=O)C(F)(F)F)C(F)(F)F | 1.06 ± 0.07 | 1.14 ± 0.07 | 1.16 ± 0.07 | 1.19 ± 0.08 | 1.24 ± 0.08 | 1.27 ± 0.08
3 | Cc1cccc(C)c1 [1,3-dimethylbenzene] + CCCCCC[N+]1(C)CCCCC1.O=S(=O)([N-]S(=O)(=O)C(F)(F)F)C(F)(F)F | 1.14 ± 0.07 | 1.16 ± 0.07 | 1.19 ± 0.08 | 1.23 ± 0.08 | 1.27 ± 0.08 | 1.29 ± 0.08
4 | Cc1cccc(C)c1 [1,3-dimethylbenzene] + CCCCC[N+]1(C)CCCCC1.O=S(=O)([N-]S(=O)(=O)C(F)(F)F)C(F)(F)F | 1.15 ± 0.07 | 1.24 ± 0.08 | 1.28 ± 0.08 | 1.31 ± 0.09 | 1.36 ± 0.09 | 1.39 ± 0.09
5 | Cc1ccc(C)cc1 [1,4-dimethylbenzene] + CCCCCC[N+]1(C)CCCCC1.O=S(=O)([N-]S(=O)(=O)C(F)(F)F)C(F)(F)F | 1.14 ± 0.07 | 1.17 ± 0.07 | 1.2 ± 0.08 | 1.24 ± 0.08 | 1.28 ± 0.08 | 1.3 ± 0.08
6 | Cc1ccc(C)cc1 [1,4-dimethylbenzene] + CCCCC[N+]1(C)CCCCC1.O=S(=O)([N-]S(=O)(=O)C(F)(F)F)C(F)(F)F | 1.16 ± 0.07 | 1.24 ± 0.08 | 1.28 ± 0.08 | 1.32 ± 0.09 | 1.37 ± 0.09 | 1.4 ± 0.09
7 | C=CCCCCCCCC [1-decene] + CCCCCC[N+]1(C)CCCCC1.O=S(=O)([N-]S(=O)(=O)C(F)(F)F)C(F)(F)F | 12.3 ± 0.8 | 12.1 ± 0.8 | 12 ± 0.8 | 11.8 ± 0.8 | 11.7 ± 0.8 | 11.5 ± 0.8
8 | C=CCCCCCCCC [1-decene] + CCCCC[N+]1(C)CCCCC1.O=S(=O)([N-]S(=O)(=O)C(F)(F)F)C(F)(F)F | 17.1 ± 1.2 | 16.5 ± 1.1 | 15.9 ± 1.1 | 15.5 ± 1.1 | 15.3 ± 1 | 14.6 ± 1
9 | C=CCCCCC [1-heptene] + CCCCCC[N+]1(C)CCCCC1.O=S(=O)([N-]S(=O)(=O)C(F)(F)F)C(F)(F)F | 5.89 ± 0.4 | 5.81 ± 0.4 | 5.69 ± 0.39 | 5.59 ± 0.38 | 5.45 ± 0.37 | 5.35 ± 0.36
10 | C=CCCCCC [1-heptene] + CCCCC[N+]1(C)CCCCC1.O=S(=O)([N-]S(=O)(=O)C(F)(F)F)C(F)(F)F | 7.42 ± 0.51 | 7.12 ± 0.49 | 6.88 ± 0.47 | 6.67 ± 0.45 | 6.48 ± 0.44 | 6.31 ± 0.43
11 | C#CCCCCC [1-heptyne] + CCCCCC[N+]1(C)CCCCC1.O=S(=O)([N-]S(=O)(=O)C(F)(F)F)C(F)(F)F | 2.39 ± 0.16 | 2.43 ± 0.17 | 2.46 ± 0.17 | 2.49 ± 0.17 | 2.52 ± 0.17 | 2.55 ± 0.17
12 | C#CCCCCC [1-heptyne] + CCCCC[N+]1(C)CCCCC1.O=S(=O)([N-]S(=O)(=O)C(F)(F)F)C(F)(F)F | 2.78 ± 0.19 | 2.81 ± 0.19 | 2.84 ± 0.19 | 2.87 ± 0.2 | 2.91 ± 0.2 | 2.94 ± 0.2
13 | C#CCCCC [1-hexyne] + CCCCCC[N+]1(C)CCCCC1.O=S(=O)([N-]S(=O)(=O)C(F)(F)F)C(F)(F)F | 1.85 ± 0.12 | 1.88 ± 0.13 | 1.92 ± 0.13 | 1.93 ± 0.13 | 1.96 ± 0.13 | 1.98 ± 0.13
14 | C#CCCCC [1-hexyne] + CCCCC[N+]1(C)CCCCC1.O=S(=O)([N-]S(=O)(=O)C(F)(F)F)C(F)(F)F | 2.09 ± 0.14 | 2.12 ± 0.14 | 2.14 ± 0.15 | 2.18 ± 0.15 | 2.22 ± 0.15 | 2.25 ± 0.15
15 | C#CCCCCCC [1-octyne] + CCCCCC[N+]1(C)CCCCC1.O=S(=O)([N-]S(=O)(=O)C(F)(F)F)C(F)(F)F | 3.1 ± 0.21 | 3.14 ± 0.21 | 3.19 ± 0.22 | 3.21 ± 0.22 | 3.24 ± 0.22 | 3.26 ± 0.22
16 | C#CCCCCCC [1-octyne] + CCCCC[N+]1(C)CCCCC1.O=S(=O)([N-]S(=O)(=O)C(F)(F)F)C(F)(F)F | 3.71 ± 0.25 | 3.74 ± 0.25 | 3.76 ± 0.26 | 3.79 ± 0.26 | 3.81 ± 0.26 | 3.84 ± 0.26
17 | C#CCCC [1-pentyne] + CCCCCC[N+]1(C)CCCCC1.O=S(=O)([N-]S(=O)(=O)C(F)(F)F)C(F)(F)F | 1.42 ± 0.09 | 1.45 ± 0.1 | 1.48 ± 0.1 | 1.5 ± 0.1 | 1.53 ± 0.1 | 1.54 ± 0.1
18 | C#CCCC [1-pentyne] + CCCCC[N+]1(C)CCCCC1.O=S(=O)([N-]S(=O)(=O)C(F)(F)F)C(F)(F)F | 1.54 ± 0.1 | 1.59 ± 0.11 | 1.62 ± 0.11 | 1.64 ± 0.11 | 1.69 ± 0.11 | 1.73 ± 0.12
19 | CC(C)CC(C)(C)C [2,2,4-trimethylpentane] + CCCCCC[N+]1(C)CCCCC1.O=S(=O)([N-]S(=O)(=O)C(F)(F)F)C(F)(F)F | 9.75 ± 0.67 | 9.59 ± 0.65 | 9.2 ± 0.63 | 8.95 ± 0.61 | 8.59 ± 0.59 | 8.43 ± 0.58
20 | CC(C)CC(C)(C)C [2,2,4-trimethylpentane] + CCCCC[N+]1(C)CCCCC1.O=S(=O)([N-]S(=O)(=O)C(F)(F)F)C(F)(F)F | 13.4 ± 0.9 | 12.5 ± 0.9 | 11.8 ± 0.8 | 11.4 ± 0.8 | 10.9 ± 0.7 | 10.6 ± 0.7
21 | CCC(C)(C)C [2,2-dimethylbutane] + CCCCCC[N+]1(C)CCCCC1.O=S(=O)([N-]S(=O)(=O)C(F)(F)F)C(F)(F)F | 6.67 ± 0.45 | 6.44 ± 0.44 | 6.12 ± 0.42 | 6 ± 0.41 | 5.84 ± 0.4 | 5.65 ± 0.39
22 | CCC(C)(C)C [2,2-dimethylbutane] + CCCCC[N+]1(C)CCCCC1.O=S(=O)([N-]S(=O)(=O)C(F)(F)F)C(F)(F)F |  | 7.94 ± 0.54 | 7.7 ± 0.53 | 7.34 ± 0.5 | 7.04 ± 0.48 | 6.86 ± 0.47
23 | CCCCC(C)=O [2-hexanone] + CCCCCC[N+]1(C)CCCCC1.O=S(=O)([N-]S(=O)(=O)C(F)(F)F)C(F)(F)F | 0.694 ± 0.047 | 0.706 ± 0.047 | 0.722 ± 0.048 | 0.74 ± 0.049 | 0.764 ± 0.05 | 0.784 ± 0.051
